How the values were obtained:
[1] = In vivo delivery of radio-labeled myoglobin with Sunfish/co-lipid complexes
Experimental: The low molecular-weight protein myoglobin was chosen as the model protein, the molecular weight is 17.8 kDa and iso-electric point 7.3. To enable quantification of organ uptake of myoglobin, myoglobin was radio-labeled with ^125Iodine-tyramine-cellobiose that is retained within the cell in which it is internalized.
The complexation was performed by mixing 3.5 μg of myoglobin in Tricine buffer (pH 8.5) with 75 nmol liposomes consisting of Sunfish and co-lipid in a molar ratio of 1:1 in 5% glucose solution.
Study 2: For complexation, SF-30, in combination with cholesterol in a molar ratio of 1:1, was used. […]
Study 2: BALB/c mice were injected intravenously with ^125Iodine-tyramine-cellobiose-labeled myoglobin complexed with different PEGylated lipid formulations. The mice were sacrificed after 10, 30 or 120 minutes following injection and the body distribution of ^125Iodine was determined. […]
The organ uptake is expressed as the percentage of injected dose ^125Iodine (tyramine-cellobiose) radioactivity. […] The total percentage of radioactivity in the blood was determined by multiplying the percentage per milliliter blood by 0.073 times the body weight in grams, being the total blood volume of the mouse. To allow an accurate comparison, the ratio between radioactivity in total blood and reticuloendothelial system (RES=liver+spleen) was expressed. […]

[2] = Gelation experiment (gel formation in solvents); format: physicochemical
Experimental: To obtain a gel or to thicken the solvent, the compound is mixed with the required solvent or a mixture of solvents in an amount between 0.01 and 50 wt. %, based on the weight of the composition. Typically, the dissolution of the components will be performed by heating (in some cases it may be helpful to homogenize the components, e.g., vortex) them together at temperatures of 20° C. to 200° C., preferably 50° C. to 150° C. Cooling these hot solutions to a preferred temperature in the range of −20° C. to 100° C., preferably 4° C. to 100° C. affords the gel or thickened solvent. […] In an alternative embodiment, the gelling agent is first dissolved in a polar or apolar solvent followed by the addition of another solvent or solvent mixture, thereby causing gelation to take place.
It will be understood that the use of the present gelling agents or thickeners to prepare a gel or to thicken a composition is also encompassed by the invention. As is well-known, gelling behavior of compounds or compositions is highly unpredictable. […] Preferably, the gelling phenomenon is thermoreversible.
(§1) In a typical gelation experiment, a carefully weighed amount of the dithienylcyclopentene derivative under investigation and 1 ml of the solvent are placed in a test tube, which is sealed and then heated until the compound is dissolved. The solution is allowed to cool to room temperature. […] The gelation process could be followed by UV-vis and CD spectroscopy as depicted in FIG. 58. At low concentrations (0.35 mM), compound D is dissolved in toluene. […] Increasing the concentration to 1.8 mM causes gelation of the solvent, which is accompanied by a change of the UV-visible spectrum, together with the appearance of a strong CD signal at 323 nm (FIG. 58, panels (a) and (c)). Similar changes in the UV-vis and CD spectrum are observed upon gelation of the 1.8 mM solution of D in toluene by cooling to a temperature below the sol-gel phase transition (from here on, referred to as gel(o)). From a plot of the increase of the CD signal versus the temperature, the sol-gel phase transition temperature of gel(o) was determined to be 29° C. for a 1.8 mM solution of D in toluene.

[3] = Sol-gel phase transition temperature and photo-switching by CD spectroscopy; format: physicochemical
Experimental: as §1
In a typical photo-switching experiment, a solution (1.8 mM) of Compound D in toluene was prepared by cooling from 70° C. to the desired temperature (typically between 30° C. and 60° C., i.e., above the gel-sol phase transition temperature of the open form of D) in a cuvette of 1 mm path length. This solution was then irradiated at λ1=313 nm to convert the ring-open form of Compound D to the ring-closed form. By using a 150 W Xe lamp and a 313 nm bandpass filter, the photo-stationary state (PSS) was reached, typically within 10 minutes, which consist of 60 mol % of the closed form and 40 mol % of the open form.

[4] = Gelation in the presence of surfactants and polymeric micelles; format: physicochemical; set-up: key: g = gel; i = insoluble; p = precipitate; sol = soluble
[5] = Gelation in the presence of surfactants and polymeric micelles; format: physicochemical; set-up: key: G = gel; C = crystalline; G^a: ^a= not stable
[6] = Urinary excretion of IOT after subcutaneous injection; format: in vivo, rat; settings: conscious rats
Experimental: DOPC/DOPS (90:10, mol/mol) and DOPC/DOPE liposomes (70:30, mol/mol) liposomes were tested.
Male Wistar rats remained conscious throughout the study. To increase the time-resolution, the diuretic furosemide (10 mg/kg dose s.c) was given in the morning, seven hours before administration of the sample. Urine was collected automatically with a one hour resolution. The concentration of IOT in the urine was measured by HPLC.

[7] = Subcutaneous pH reduction by MES buffer; format: in vivo, rat; settings: pH 6.1, 0.5 ml s.c.
Experimental: Male Wistar rats remained conscious throughout the study. The subcutaneous pH was constantly recorded using a micro-glass electrode. After stabilization of the pH, 0.5 ml MES buffer (pH 6.1) was injected approximately 3 mm from the pH electrode. The effect of different molarities (50, 100 and 250 mM) of the MES buffer on the time-course of pH reduction was tested.

[8] = biological target: α-chymotrypsin (Bos taurus, UniProt P00766); assay: Cleavage of prodrug-gelling agent conjugate by α-chymotrypsin in gel and solution; format: biochemical
Experimental: The prodrug has been mixed with several gelators (neutral: C3-Am-Meth-Am-CH2CH2OCH2CH2OH as well as ionizable: DBC and C3-Am-Meth-OH) and stabile gels were obtained (0.25 wt % of the prodrug and 0.5 wt % of the gelator). […] This difference could be observed with the naked eye: after 20 minutes, the solution containing the prodrug turned bright yellow (due to the release of nitroaniline, whereas the gel containing the prodrug turned slightly yellow only after 20 hours.

[9] = biological target: T1, MscL (Escherichia coli, UniProt P0A742); assay: Release from heparin sulfate loaded liposomes with an applied electric field; settings: liposome with calcein, negative potential
T1 construct: made in house; host or cells: E. coli PB104
T1 sequence (P0A742 2-136): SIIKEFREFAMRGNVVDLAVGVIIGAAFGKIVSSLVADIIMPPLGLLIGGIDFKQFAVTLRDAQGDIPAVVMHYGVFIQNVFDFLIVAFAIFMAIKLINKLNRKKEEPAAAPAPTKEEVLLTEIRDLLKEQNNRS
Experimental: In vitro release profiles of a model drug were determined. Liposomes, as in Example 1, with and without MscL-6His, were prepared in the presence of the dye, calcein and heparin sulfate, a natural polymer found in secretory granules. A liposome was inserted into the tip of a glass pipette with the application of suction. The pipette voltage relative to the bath was controlled by a current-to-voltage converter. The solution in both the bath and the pipette was buffered to 6.5 with histamine dichloride and phosphoric acid. An Axopatch 200B was used to apply voltages and to sample the currents at 2.5 ms intervals. Swelling was induced by the application of a negative potential. To measure the swelling, the isolated liposomes were imaged and analyzed as described (J. M. Fernandez, et al., 1991, Biophys. J. 59:1022-1027, and J. R. Monck, et al., 1991; Biophys. J. 59:39-47).

[10] = Urinary excretion of MAG3 after subcutaneous or intravenous injection; settings: free compound
Experimental: The effect of drug formulation on the rate of drug release in vivo was tested in the rat by external counting of radioactivity.
DOPC/DOPS (90:10, mol/mol) liposomes with or without the MscL-mutant G22C were used (protein-to-lipid ratio of 1:20, wt/wt).
Encapsulation of MAG3 in liposomes was performed by freezing/thawing three times followed by extrusion through a 400 nm filter. The free fraction of the compound was removed by G50 Sephadex column separation.
The normal liposomes were loaded with MAG3 in 0.9% NaCl and eluted on the G50 column with 25 mM HEPES pH 8, 150 mM NaCl.
Male Wistar rats were anaesthetized using iso-flurane O2/NO throughout the study. Liposome-encapsulated MAG3 in a 0.5 ml volume was injected subcutaneously (in the neck) and accumulation of radioactivity in the urinary bladder constantly monitored by external counting using a gamma-camera (window: 140 keV, 250 keV width, one minute time resolution). At the end of the study (after 40 minutes), a ten times higher dose of free MAG3 was administered subcutaneously or intravenously to measure the urinary excretion rates of those formulations.

[11] = biological target: MscL (Escherichia coli, UniProt P0A742, G22C); format: biochemical, E. coli; set-up: made in house; host or cells: E. coli PB104
Experimental: Results Overexpression and Purification of the MscL Channel Protein
Samples were prepared and calcein efflux was monitored as described elsewhere in Example 1.
300 μl of detergent-treated liposomes were gently mixed with 240 μl of 0.25 mg/ml purified MscL-mutant G22C in elution buffer containing 0.2% Triton X-100. The mixture was incubated at 60° C. for 45 minutes, followed by the addition of an equal volume (540 μl) of calcein-loading buffer, containing 200 mM calcein, 25 mM Tris, 1 mM EDTA, pH 8.0. After addition of 20 mg of Triton X-100-absorbing Bio-Beads SM-2, the mixture was gently agitated for one hour at room temperature. Subsequently, 80 mg Bio-Beads were added and incubated at 4° C. overnight under mild agitation. Samples were prepared for calcein efflux assay as described elsewhere.

[12] = biological target: MscL-mutant G22C (Escherichia coli, UniProt P0A742, G22C); settings: DOPC:DOPS (9:1) liposomes, 1 mM MTSET
Experimental: DOPC:DOPS (9:1 mol/mol) liposomes containing the G22C MscL were prepared as described previously. […] The labeled insulin was encapsulated by three freeze-thaw cycles, followed by extrusion through a 400 nm polycarbonate membrane.
Samples were taken at different time points and triton was added as a control for maximum fluorescence (100%). Samples were filtered over a 450 nm Cellulose Nitrate filter (Schleicher & Schuell BA85). The filtrate of 2 ml was retained and the fluorescence of 200 μl of each filtrate was monitored in a f1600 platereader (Bio-Tek). All experiments were performed in triplo.

[13] = tested on: pB104 strain (MscL null E. coli); assay: MTSET shock assay on agar plates with IPTG; format: cell-based; set-up: Growth −MTSET-shock: key to the marks not given beside the values
Experimental: The constructs of the G20C^Ll, V21C^Ll and G22C^Ec MscL-6His mutants were constructed using standard molecular biology techniques. The mutants were tested in pB104 strain (MscL null E. coli) by a MTSET shock assay on agar plates with IPTG (A. F. Batiza, et al., 2002, PNAS, 99:5643-5648).

[14] = DOPC:DOPS (90:10) liposomes, 1 mM MTSET

## 1-(polyethyleneglycol5000-ω-methylether)-4-(10′-cis-nonadecenyl)pyridinium Bromide [SF-79]
[1]; 30 minutes after administration, complex containing 20% SF-79
  blood/RES ratio: one
[1]; 120 minutes after injection, PEGylated complexes
  circulation time / radioactivity in the blood: the highest amount of radioactivity in the blood

## Cc1sc(C(=O)N[C@H](C)c2ccccc2)cc1C1=C(c2cc(C(=O)N[C@H](C)c3ccccc3)sc2C)CCC1 [Compound D, 1,2-Bis(2′-methyl-5′-{(((R)-1-phenylethyl)amino)carbonyl}thien-3′-yl)cyclopentene]
[2]
  solvents gelated: cyclohexane, 1-phenyloctane, toluene, n-butylether, benzene, tetralin
[3]; 1.8 mM in toluene, after irradiation at 313 nm (PSS)
  sol-gel phase transition temperature of gel(c,I): 62 °C
[3]; 1.8 mM in toluene, open form
  sol-gel phase transition temperature of gel(o): 29 °C
[3]; gel(c,I)
  increase of thermal stability compared to gel(o): more than 30 °C

## O=C(N[C@@H](CSSC[C@H](NC(=O)c1ccccc1)C(=O)O)C(=O)O)c1ccccc1 [DBC, dibenzoyl-L-cystine, reference compound]
[4]; Pluronic P 105, 5 mg · ml^−1
  Gelation properties: g
[4]; Pluronic P 105, 5 mg · ml^−1, * pH reversible gelation
  Gelation properties: g
[4]; Pluronic P 105, 5 mg · ml^−1, ** pH reversible then thermoreversible gelation
  Gelation properties: g
[4]; Pluronic P 105, 100 mg · ml^−1, * pH reversible gelation
  Gelation properties: g
[4]; Pluronic P 105, 100 mg · ml^−1, ** pH reversible then thermoreversible gelation
  Gelation properties: g
1 wt % gel, tris-(2-carboxy ethyl)phosphine
  response of gel to reducing agent: gel-to-sol transition
D-glucose, glucose oxidase, catalase, NaHCO3, after three days
  gelation by pH decrease through D-gluconic acid formation: completely gelified
[5]; CTAB < CMC, * pH reversible gelation
  Gelation properties: G
[5]; CTAB < CMC, ** pH reversible then thermoreversible gelation
  Gelation properties: G
[5]; CTAB > CMC, * pH reversible gelation
  Gelation properties: G
[5]; CTAB > CMC, ** pH reversible then thermoreversible gelation
  Gelation properties: G
[5]; Lactose der. < CMC, * pH reversible gelation
  Gelation properties: G
[5]; Lactose der. < CMC, ** pH reversible then thermoreversible gelation
  Gelation properties: G
[5]; Lactose der. > CMC, * pH reversible gelation
  Gelation properties: G
[5]; Lactose der. > CMC, ** pH reversible then thermoreversible gelation
  Gelation properties: G
[5]; Nonionic (Lactose der.) < CMC
  Gelation properties: G
[5]; Nonionic (Lactose der.) > CMC
  Gelation properties: G
[5]; Pluronic P 105, 100 mg · ml^−1
  Gelation properties: g^a
[5]; SDS < CMC, * pH reversible gelation
  Gelation properties: G
[5]; SDS < CMC, ** pH reversible then thermoreversible gelation
  Gelation properties: G
[5]; SDS > CMC, * pH reversible gelation
  Gelation properties: G
[5]; SDS > CMC, ** pH reversible then thermoreversible gelation
  Gelation properties: G
[5]; anionic (SDS) < CMC
  Gelation properties: G
[5]; anionic (SDS) > CMC
  Gelation properties: G
[5]; cationic (CTAB) < CMC
  Gelation properties: G
[5]; cationic (CTAB) > CMC
  Gelation properties: C

## CNC(=O)c1c(I)c(NC(C)=O)c(I)c(C(=O)O)c1I [IOT, Iodo-thalamate]
[6]
  urinary excretion of IOT after subcutaneous injection: completed in the first couple of hours after injection

## O=S(=O)(O)CCN1CCOCC1 [MES]
[7]; 50 mM
  time for subcutaneous pH to return to pH 7.4: ten
[7]; 100 mM
  time for subcutaneous pH to return to pH 7.4: ten
[7]; 250 mM
  time pH remained below pH 6.5: more than 30 minutes

## CHex(AmEtOEtOH)2(AmPhe-pNA) [compound 16]
[8]; 0.25 wt % prodrug in mixed gel, 0.5 wt % gelator
  time until gel turned slightly yellow (release of nitroaniline): 20 h
[8]; prodrug in solution layered with α-chymotrypsin
  time until solution turned bright yellow (release of nitroaniline): 20 min

## heparin sulfate
[9]
  swelling on applied voltage: swelled instantaneously and predictably with the application of a negative voltage

## mertiatide [MAG3]
[10]; intravenous
  time to 50% urinary excretion: 3 min
[10]; subcutaneous
  time to 50% urinary excretion: > 12 min

## sodium (2-sulfonatoethyl)methane thiosulfonate [MTSES, reference compound]
[11]; G22C in DOPC:DOPS liposomes, 2.5 mM MTSEA, 10 mM MTSES
  calcein release upon addition of MTS compound, versus MTSET: the kinetics of release are significantly slower

B1: G22C E. coli (protein, UniProt P0A742 1-136, looked up, variant G22C)
Large-conductance …: MSIIKEFREFAMRGNVVDLAVCVIIGAAFGKIVSSLVADIIMPPLGLLIGGIDFKQFAVTLRDAQGDIPAVVMHYGVFIQNVFDFLIVAFAIFMAIKLINKLNRKKEEPAAAPAPTKEEVLLTEIRDLLKEQNNRS
[11]; [14]
  encapsulated calcein released: 80%
  time in which half of the MscL-mediated efflux occurs: seven
[12]
  FITC insulin efflux: release of FITC insulin through MscL-mutant G22C upon activation with 1 mM MTSET
[13]
  Growth after +MTSET-shock: −
  Growth −MTSET-shock: ++++
